Data taken from US9650674B2, “Nucleic acid probes and methods of using the same” (Board of Trustees University of Arkansas, priority 2012, dated 2017).
One block for each molecule: values may come before it. {Cy5.5} = Cy5.5 near-infrared fluorophore label at the ends

Experiments:
[1] = target: T1, DNase I (Homo sapiens, UniProt P24855); experiment: DNase I endonuclease activity measured with AB259.3 probe in presence of inhibitors; assay type: biochemical; conditions: 1 μg/ml DNase I; EDTA 200 μM; FIG. 2D
T1 construct: purchased Sigma (St. Louis, Mo.)
T1 sequence (P24855 23-282): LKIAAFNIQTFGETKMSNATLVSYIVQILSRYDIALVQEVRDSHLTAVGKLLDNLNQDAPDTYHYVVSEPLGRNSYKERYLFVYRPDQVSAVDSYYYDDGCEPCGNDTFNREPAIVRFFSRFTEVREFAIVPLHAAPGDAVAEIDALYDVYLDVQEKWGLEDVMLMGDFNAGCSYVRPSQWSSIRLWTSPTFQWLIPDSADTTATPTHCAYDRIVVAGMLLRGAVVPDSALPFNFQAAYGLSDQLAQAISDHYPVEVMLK
Method: (§1) To detect specificity of the assay to DNase I that is a Ca/Mg-dependent endonuclease, AB259.3 probe was tested with 1 μg/ml DNase I in the presence of Ca++ and Mg++ (EAA buffer), in absence of the cations (deionized water), or in excess of EDTA (200 μM). […] Finally, it was tested whether AB259.3 probe will detect inhibition of DNase I activity by DNase I inhibitors such as ZnCl2 and Zn-diisopropyl salicylate (Zn-DIPS).
(§2) All cell-free experiments were performed using the Bio-Tek Synergy 5 fluorescent plate reader. Before experiments, optimal excitation and emission wavelengths were determined. For this, excitation and emission were scanned in the ranges of 600-680 nm and 690-705 nm, respectively. The optimal excitation/emission was determined to be 665/703 nm. All kinetic and endpoint measurements were done in a total volume of 100 μl at 37° C. Unless stated otherwise, DNA substrate was used in final concentration 0.5 μM reconstituted in endonuclease activity assay (EAA) buffer (2 mM CaCl2, 5 mM MgCl2, 10 mM Tris-HCl, pH 7.4) in a 96-well plate. After measurement of starting fluorescence, DNase I or tested material (diluted 1:20 urine or 1:100 serum) were added to the reconstituted probe, rapidly mixed and fluorescence was monitored for up to 60 min with 30-sec intervals. In some instances, EDTA (final concentration 200 μM) or NaOH (50 mM) was added to terminate the reaction. For the experiments that involved assessment of fluorescence after DNA denaturing, probes were tested in Cepheid real-time PCR system using Cy5 setting (Sunnyvale, Calif.).

[2] = tested on: wild-type (WT) mouse kidney cryosections; experiment: Endonuclease activity ex vivo in kidney cryosections; conditions: FIG. 5C
Method: Next it was examined whether AB259.3 probe can be used for measurement of endonuclease activity in tissue sections. Kidneys were used because they are known for high activity of DNase I (Ca/Mg-dependent endonuclease). Freshly prepared 10 μm thick cryosections of wild-type (WT) mouse kidney were exposed with 5 μM AB259.3 probe in presence of EAA buffer at 37° C. and time-lapse imaged for 10 min with 1-min intervals.
Specimens of kidney, liver, spleen and testis tissues were removed from euthanized mice, immersed in OCT medium, rapidly frozen by Fisher Freeze-it and kept on dry ice for no longer than 1 hour prior slicing. Tissue cryosections (8-μm thick) were prepared using the Microm HM 505E cryotome, placed to the Fisher Plus slides and immediately exposed with 0.5 μM AB259.3 probe diluted in EAA buffer. In control samples, applied probe contained EAA buffer supplemented with 200 μM EDTA. Images were taken in 628/40-692/40 spectrum every 30 sec for 10 min in 10 random XY coordinates. Three sections from each specimen were analyzed separately. Maximal velocity of increasing fluorescence was averaged for each section.

[3] = tested on: NRK-52E cells; experiment: Intracellular endonuclease activity in cultured cells, time-lapse microscopy; assay type: cell-based, rat; conditions: 25 μM cisplatin or 50 μM camptothecin for 8 hours; FIGS. 4B and 4C
Method: To test whether AB259.3 probe may be delivered intracellularly and thus be used as an indicator of endonuclease activity in live cells, NRK-52E cells were transfected with of AB259.3/Lipofectamine LTX complexes and imaged by time-lapse epifluorescence microscopy every 10 min for 8 hours. A 2.5-3 times increased fluorescence reached plateau in 1 hour after transfection and the cells retained fluorescent dye for the duration of experiment (FIG. 4A). To induce activity of endonucleases, cells were treated with cisplatin or camptothecin and imaged by time-lapse microscopy for Cy5.5 fluorescence. […] Therefore, it was concluded that AB259.3 can be delivered and used for intracellular monitoring of endonuclease activity in live cells. To further determine whether AB259.3 probe can be used in other cell lines, several of them were tested (FIG. 4D). […] It was then determined whether the probe without the loop would be consumed by NRK-52E cells equally to the original loop probe. […] Finally, PCR was used to determine whether the DNA part (as opposed to the fluorophores) of the probes enters the cells in vivo and in vitro.
Rat proximal tubular epithelial NRK-52E cells were used to test the ability of AB259.3 probe to measure endonuclease activity. The cells were seeded in a 24-well plate at 50,000 cells per well in complete DMEM medium supplemented with 10% fetal bovine serum. Cells were transfected with the AB259.3 probe using Lipofectamin LTX and then subjected to spinning disk confocal fluorescent time-lapse microscopy in 628/40-692/40 spectrum every 10 min for 8 hours using Olympus IX-81 image system equipped with Hamamatsu ORCA-ER camera and LiveCell microenvironmental control chamber (Pathology Devices Inc., Westminster, Md.). In separate experiment, cells were treated with either 25 μM cisplatin or 50 μM camptothecin for 8 hours, followed by 1-hour transfection with AB259.3 probe and 8-hour time-lapse imaging session with 10-min intervals using the same microscopy system.

[4] = Baseline fluorescence of hairpin DNA probes; assay type: physicochemical; conditions: FIG. 1B
Source text: It was impossible to determine if the background fluorescence was attributed to the probe or it originated from a partial degradation of the probe. Consequently, the NIRF probes were designed as hairpins to allow testing the integrity of DNA by its denaturing followed by reannealing. The use of hairpin also allows easy measurement of the maximum fluorescence of the probe. The distance between two fluorophores varied by changing of protruding DNA strand length from +0 (AB259.1 probe) to +5 (AB259.3 probe) or to +10 (AB259.5 probe) as shown in FIG. 1A. The baseline fluorescence of probe AB259.1 was 30% higher than negative control without a probe (FIG. 1B).
as §2

[5] = Heat denaturing and reannealing of hairpin probes (probe integrity); assay type: physicochemical; conditions: ROX internal reference; above background; FIG. 1C
Method: To ensure the integrity of the DNA probes, it was tested whether a heat denaturing of the hairpins would cause an increase in fluorescence, and if a reannealing would reverse it. To compensate for thermal change of fluorophore's emission, the ROX fluorophore was added to tested probes as an internal reference.
as §2

[6] = Alkaline denaturing of probes, kinetic fluorescence; assay type: physicochemical; conditions: alkaline buffer
Method: Lastly, the probes' integrity was tested by alkaline denaturing. The probes were treated with alkaline buffer and kinetic detection of the fluorescence was performed. […] AB259.1, AB259.3 and AB259.5 gained 40%, 81%, and 85% of fluorescence, respectively.
as §2

[7] = target: T1, DNase I; experiment: Kinetic fluorescence of probes exposed to DNase I in vitro; assay type: biochemical; conditions: probe 0.5 μM, DNase I 1 μg/ml; for gain of fluorescence compared to baseline: twenty min into the reaction, FIG. 2B
Method: It was hypothesized that exposure of the probes to endonucleases would lead to DNA cleavage and dissociation of protruded strand from the hairpin (FIG. 2A). To assess which of the proposed probes is the best to measure endonuclease activity, the probes (0.5 μM) were exposed with recombinant human DNase I (1 μg/ml) and the kinetic fluorescence curves were recorded. Twenty min into the reaction, AB259.1, AB259.3 and AB259.5 gained 1.75-, 2.6- and 1.62-fold fluorescence, respectively, compared to the baseline (FIG. 2B). At 20-25 min, AB259.1 and AB259.3 reached the plateaus. […] Therefore, AB259.3 was chosen for further experiments.
as §1, §2

[8] = tested on: WT and DNase I KO mice; experiment: Intravital imaging of endonuclease activity in kidneys; conditions: 5 μl DNase I (0.1 mg/ml) subcapsular, left kidney, then AB259.3 50 nmol/kg i.v.; FIGS. 7F and 7G
Source text: At the next step, WT and DNase I KO mice were anesthetized and intravenously administered with 50 nmol/kg of AB259.3 probe followed by intravital imaging using Xenogen-IVIS.
To additionally confirm preferential accumulation and processing of AB259.3 probe in kidneys, separate set of mice was deeply anesthetized and subjected to abdominal incision and real-time intravital visualization of left kidney while performing intravenous injection of AB259.3 probe. […] For this, DNase I KO animals were subjected to open surgery that was used to administer 5 μl DNase I (0.1 mg/ml) to subcapsular space of upper ventral zone of left kidney. To control effect of DNase I, additional WT and DNase I KO mice were injected with same volume of the vehicle. Immediately after injection, mice were injected with 50 nmol/kg of AB259.3 probe intravenously and then imaged in a Xenogen-IVIS.
Male DNase I KO mice and their WT counterparts at the age 8-10 weeks were used for all experiments. All procedures with mice were performed under general anesthesia with 50 mg/kg ketamine. For subcutaneous administration, mice were injected with 10 μl of 0.1 μM AB259.3 in the dorsal subcutaneous site. For systemic visualization, AB259.3 was injected intravenously at 50 nmol/kg in tail vein.
Imaging of live and euthanized mice or their isolated organs were performed using Xenogen IVIS Image System 200 (Caliper Life Sciences, Hopkinton, Mass.) equipped with Living Image® Software.

- effect on DNase I activity detected by AB259.3 fluorescence [1]: inhibited
Molecule: O=C(O)CN(CCN(CC(=O)O)CC(=O)O)CC(=O)O [EDTA, reference compound]
- effect of EDTA on fluorescence increase in cryosections [2]: the increase of fluorescence was prevented

- effect on DNase I activity detected by AB259.3 fluorescence [1]: suppressed
Molecule: CC(C)c1cc(C(=O)O)c([O-])c(C(C)C)c1.CC(C)c1cc(C(=O)O)c([O-])c(C(C)C)c1.[Zn+2] [Zn-DIPS, zinc-diisopropyl salicylate]

Molecule: [Cl-].[Cl-].[Zn+2] [ZnCl2, zinc chloride]
- effect on DNase I activity detected by AB259.3 fluorescence [1]: suppressed

Molecule: CC[C@@]1(O)C(=O)OCc2c1cc1n(c2=O)Cc2cc3ccccc3nc2-1 [camptothecin, reference compound]
- induction of endonuclease activity (Cy5.5 fluorescence of AB259.3 in treated cells) [3]: significant increase of fluorescence

Molecule: N.N.[Cl][Pt][Cl] [cisplatin, reference compound]
- induction of endonuclease activity (Cy5.5 fluorescence of AB259.3 in treated cells) [3]: significant increase of fluorescence

Molecule: [Cy5.5]AACACTCCGATGAGTGTAGAATGTACGAGT[Cy5.5] (DNA, 5' {Cy5.5}, 3' {Cy5.5}, backbone not given here; hairpin DNA probe) [AB259.5, hairpin DNA probe with Cy5.5 at both ends, protruding strand +10]
- baseline fluorescence (in words) ([4]; correlated with length of protruded DNA end): much higher levels of the baseline fluorescence
- gain of fluorescence on heat denaturing [5]: 1.8 times
- gain of fluorescence on alkaline denaturing [6]: 85%
- behaviour of fluorescence at 20-25 min (in words) [7]: became variable and did not yield reliable gain of fluorescence thereafter
- gain of fluorescence compared to baseline [7]: 1.62 fold

Molecule: [Cy5.5]AACACTCCGATGAGTGTA[Cy5.5] (DNA, 5' {Cy5.5}, 3' {Cy5.5}, backbone not given here; hairpin DNA probe) [AB259.1, hairpin DNA probe with Cy5.5 at both ends, protruding strand +0]
- baseline fluorescence higher than negative control without a probe [4]: 30%
- gain of fluorescence on heat denaturing [5]: 2.7 times
- gain of fluorescence on alkaline denaturing [6]: 40%
- gain of fluorescence compared to baseline [7]: 1.75 fold

B1: DNase I: recombinant DNase I delivered to the kidneys of DNase I KO mice (protein, UniProt P24855 23-282, looked up)
Deoxyribonuclease-1: T1 sequence (P24855 23-282)
- kidney Cy5.5 fluorescence of DNase I KO mice after subcapsular DNase I [8]: Cy5.5 fluorescence comparable to WT mice
